Experimental data reported in patent US9546164B2 (GENENTECH, INC., priority 2013, dated 2017).
Counter-ions that a name gives are not always drawn.
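Note: Filter-bound radioactivity counted by liquid scintillation, nonspecific binding defined with excess unlabelled ligand, IC50 fitted to percent inhibition of specific binding.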

These compounds were tested against hNav1.7 (Homo sapiens (Human), UniProt Q15858) (assay: Tritiated sulfonamide competitive binding to membranes from cells expressing hNav1.7 and the β1 subunit). Conditions: not given.
hNav1.7, sequence (Q15858 other isoform, or with tags, fused parts or gaps): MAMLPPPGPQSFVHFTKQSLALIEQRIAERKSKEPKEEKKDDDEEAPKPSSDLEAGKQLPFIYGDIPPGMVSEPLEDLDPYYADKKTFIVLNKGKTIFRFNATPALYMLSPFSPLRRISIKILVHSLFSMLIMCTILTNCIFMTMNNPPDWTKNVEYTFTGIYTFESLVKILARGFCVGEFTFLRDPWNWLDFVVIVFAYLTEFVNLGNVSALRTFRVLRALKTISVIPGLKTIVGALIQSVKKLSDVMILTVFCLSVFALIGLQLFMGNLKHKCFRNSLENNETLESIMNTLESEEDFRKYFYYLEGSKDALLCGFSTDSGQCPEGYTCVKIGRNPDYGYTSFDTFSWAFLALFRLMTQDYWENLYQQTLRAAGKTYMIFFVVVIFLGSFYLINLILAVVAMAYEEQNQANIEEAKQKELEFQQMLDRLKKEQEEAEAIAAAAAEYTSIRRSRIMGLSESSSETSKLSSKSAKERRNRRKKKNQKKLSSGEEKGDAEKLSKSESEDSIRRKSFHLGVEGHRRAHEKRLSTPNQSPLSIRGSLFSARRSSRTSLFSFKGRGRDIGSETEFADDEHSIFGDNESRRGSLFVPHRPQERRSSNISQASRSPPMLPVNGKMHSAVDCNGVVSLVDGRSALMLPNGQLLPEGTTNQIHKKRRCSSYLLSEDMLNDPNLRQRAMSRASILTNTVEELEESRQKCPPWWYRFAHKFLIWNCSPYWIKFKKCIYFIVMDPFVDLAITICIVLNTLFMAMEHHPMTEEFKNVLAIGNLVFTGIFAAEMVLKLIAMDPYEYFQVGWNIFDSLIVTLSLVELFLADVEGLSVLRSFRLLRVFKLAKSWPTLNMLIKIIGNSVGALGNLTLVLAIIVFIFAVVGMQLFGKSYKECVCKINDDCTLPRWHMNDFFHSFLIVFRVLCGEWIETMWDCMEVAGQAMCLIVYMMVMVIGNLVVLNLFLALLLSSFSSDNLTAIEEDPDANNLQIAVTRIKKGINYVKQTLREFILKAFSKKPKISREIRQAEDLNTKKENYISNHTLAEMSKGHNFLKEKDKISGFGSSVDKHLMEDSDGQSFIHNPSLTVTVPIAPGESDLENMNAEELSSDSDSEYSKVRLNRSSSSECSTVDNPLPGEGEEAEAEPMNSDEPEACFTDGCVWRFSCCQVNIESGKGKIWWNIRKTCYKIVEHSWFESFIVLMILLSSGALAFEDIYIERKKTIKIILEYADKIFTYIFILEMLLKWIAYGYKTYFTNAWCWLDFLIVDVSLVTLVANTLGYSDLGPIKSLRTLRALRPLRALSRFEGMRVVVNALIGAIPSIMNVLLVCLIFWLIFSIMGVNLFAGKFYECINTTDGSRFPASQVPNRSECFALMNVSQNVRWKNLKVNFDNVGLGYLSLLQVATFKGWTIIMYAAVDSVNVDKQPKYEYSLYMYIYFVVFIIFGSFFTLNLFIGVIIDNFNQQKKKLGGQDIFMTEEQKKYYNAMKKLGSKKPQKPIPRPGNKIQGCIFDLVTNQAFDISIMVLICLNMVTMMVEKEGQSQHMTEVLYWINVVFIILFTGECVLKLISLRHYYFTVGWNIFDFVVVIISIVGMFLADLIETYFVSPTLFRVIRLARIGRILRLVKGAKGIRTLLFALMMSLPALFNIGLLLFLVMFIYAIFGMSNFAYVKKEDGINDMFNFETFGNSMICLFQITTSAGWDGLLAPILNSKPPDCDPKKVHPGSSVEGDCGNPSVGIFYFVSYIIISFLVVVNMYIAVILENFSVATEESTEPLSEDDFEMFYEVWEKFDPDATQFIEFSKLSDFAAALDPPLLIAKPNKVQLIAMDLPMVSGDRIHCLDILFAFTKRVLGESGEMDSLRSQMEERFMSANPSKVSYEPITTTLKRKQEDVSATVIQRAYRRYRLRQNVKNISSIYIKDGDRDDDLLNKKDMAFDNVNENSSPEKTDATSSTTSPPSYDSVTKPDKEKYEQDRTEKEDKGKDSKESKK
hNav1.7, sequence (Q07699 19-218 partner): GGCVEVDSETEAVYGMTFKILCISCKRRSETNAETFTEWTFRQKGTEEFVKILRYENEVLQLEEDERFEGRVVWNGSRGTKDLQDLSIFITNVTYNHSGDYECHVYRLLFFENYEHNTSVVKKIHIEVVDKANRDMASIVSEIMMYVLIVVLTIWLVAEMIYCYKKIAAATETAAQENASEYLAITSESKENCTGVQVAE
Work on `O=C(NS(=O)(=O)N1CCC1)c1cc(C2CC2)c(O[C@@H]2CCCN(CC3CCCCC3)C2)cc1F` [Example 11, (R)—N-(azetidin-1-ylsulfonyl)-4-((1-(cyclohexylmethyl)piperidin-3-yl)oxy)-5-cyclopropyl-2-fluorobenzamide] yielded an IC50 of 47.4 nM.
Compound `O=C(NS(=O)(=O)C1CC1)c1cc(C2CC2)c(O[C@@H]2CCCN(Cc3ccc(F)cc3Cl)C2)cc1F` [Example 7, (R)-4-((1-(2-chloro-4-fluorobenzyl)piperidin-3-yl)oxy)-5-cyclopropyl-N-(cyclopropylsulfonyl)-2-fluorobenzamide] has an IC50 of 3.5 nM.
`O=C(NS(=O)(=O)C1CC1)c1cc(C2CC2)c(CN2CCC(CF)(c3ccc(F)cc3)CC2)cc1F` [Example 514, 5-cyclopropyl-N-(cyclopropylsulfonyl)-2-fluoro-4-((4-(fluoromethyl)-4-(4-fluorophenyl)piperidin-1-yl)methyl)benzamide, trifluoroacetic acid salt] was tested, and the IC50 was 24.4 nM.
For `C[C@H](c1cc(Cl)cc(Cl)c1)N1CCN(Cc2cc(F)c(C(=O)NS(C)(=O)=O)cc2C2CC2)C[C@@H]1C` [Example 565, 5-cyclopropyl-4-(((S)-4-((R)-1-(3,5-dichlorophenyl)ethyl)-3-methylpiperazin-1-yl)methyl)-2-fluoro-N-(methylsulfonyl)benzamide], the IC50 was 4.1 nM.
`CS(=O)(=O)NC(=O)c1cc(C2CC2)c(CN2CCC(Oc3ccc(C(F)(F)F)cc3)CC2)cc1F` [Example 499, 5-cyclopropyl-2-fluoro-N-(methylsulfonyl)-4-((4-(4-(trifluoromethyl)phenoxy)piperidin-1-yl)methyl)benzamide] showed an IC50 of 13.6 nM.

Same assay, conditions: read-out: Ligand Binding Assay; 100 pM [3H]compound, membranes with hNav1.7 and β1 subunit, 18 h, room temperature
`CS(=O)(=O)NC(=O)c1cc(C2CC2)c(CN2CCC(Oc3ccc(C(F)(F)F)cn3)CC2)cc1F` [Example 476, 5-cyclopropyl-2-fluoro-N-(methylsulfonyl)-4-((4-((5-trifluoromethyl)pyridin-2-yl)oxypiperidin-1-yl)methyl)benzamide, trifluoroacetic acid salt] gave an IC50 of 37.2 nM.
`CS(=O)(=O)NC(=O)c1cc(C2CC2)c(OCC2CCN(Cc3cc(F)c(Br)cc3F)CC2)cc1F` [Example 588, 4-((1-(4-bromo-2,5-difluorobenzyl)piperidin-4-yl)methoxy)-5-cyclopropyl-2-fluoro-N-(methylsulfonyl)benzamide] showed an IC50 of 6.9 nM.
For `CS(=O)(=O)NC(=O)c1cc(C2CC2)c(OCC2CCN(Cc3ccccc3Cl)CC2)cc1F` [Example 191, 4-((1-(2-Chlorobenzyl)piperidin-4-yl)methoxy)-5-cyclopropyl-2-fluoro-N-(methylsulfonyl)benzamide], the IC50 was 32 nM.
With `CS(=O)(=O)NC(=O)c1cc(C2CC2)c(OCC2CCN(Cc3ccc(Br)cc3C(F)(F)F)CC2)cc1F` [Example 585, 4-((1-(4-bromo-2-(trifluoromethyl)benzyl)piperidin-4-yl)methoxy)-5-cyclopropyl-2-fluoro-N-(methylsulfonyl)benzamide] the IC50 was 3.5 nM.
In the case of `O=C(NS(=O)(=O)N1CCC1)c1cc(C2CC2)c(OC[C@@H]2CCCN(Cc3ccc(F)cc3Cl)C2)cc1F` [Example 333], the IC50 is reported as 20.7 nM.
`C[C@@H](c1cc(Cl)cc(C(F)(F)F)c1)N1CCC(C)(COc2cc(F)c(C(=O)NS(C)(=O)=O)cc2C2CC2)CC1` (single isomer, unassigned) [Example 279] showed an IC50 of 4 nM.
Compound `CC(C)(C)OC(=O)N1CC(COc2cc(F)c(C(=O)NS(C)(=O)=O)cc2C2CC2)C1` [Example 72, tert-butyl 3-((2-cyclopropyl-5-fluoro-4-((methylsulfonyl)carbamoyl)phenoxy)methyl)azetidine-1-carboxylate] has an IC50 of 750 nM.
With `CS(=O)(=O)NC(=O)c1cc(C2CC2)c(OCC2CCN(Cc3cc(Cl)cc(OC(F)(F)F)c3)CC2)cc1F` [Example 136, 4-((1-(3-Chloro-5-(trifluoromethoxy)benzyl)piperidin-4-yl)methoxy)-5-cyclopropyl-2-fluoro-N-(methylsulfonyl)benzamide] the IC50 was 1.88 nM.
